Measurements taken from US20250145585A1, “HETEROCYCLIC INHIBITORS OF IGF-1R FOR TREATMENT OF DISEASE” (HORIZON THERAPEUTICS IRELAND DAC, priority 2023, published 2025).

Legend:
IGF-1R [1] = target: T1, IGF-1R (Homo sapiens, UniProt P08069); assay: Example B-1: IGF-1R Assay (PC3 cells stimulated with IGF1, AlphaLISA on cell lysates); format: cell-based; settings: compound two hours, IGF1 200 ng/mL for 30 min, read-out: IC50, Biological Activity against IGF-1R (Table B1)
T1 construct: expressed in transfected cells
T1 sequence (P08069 31-1367): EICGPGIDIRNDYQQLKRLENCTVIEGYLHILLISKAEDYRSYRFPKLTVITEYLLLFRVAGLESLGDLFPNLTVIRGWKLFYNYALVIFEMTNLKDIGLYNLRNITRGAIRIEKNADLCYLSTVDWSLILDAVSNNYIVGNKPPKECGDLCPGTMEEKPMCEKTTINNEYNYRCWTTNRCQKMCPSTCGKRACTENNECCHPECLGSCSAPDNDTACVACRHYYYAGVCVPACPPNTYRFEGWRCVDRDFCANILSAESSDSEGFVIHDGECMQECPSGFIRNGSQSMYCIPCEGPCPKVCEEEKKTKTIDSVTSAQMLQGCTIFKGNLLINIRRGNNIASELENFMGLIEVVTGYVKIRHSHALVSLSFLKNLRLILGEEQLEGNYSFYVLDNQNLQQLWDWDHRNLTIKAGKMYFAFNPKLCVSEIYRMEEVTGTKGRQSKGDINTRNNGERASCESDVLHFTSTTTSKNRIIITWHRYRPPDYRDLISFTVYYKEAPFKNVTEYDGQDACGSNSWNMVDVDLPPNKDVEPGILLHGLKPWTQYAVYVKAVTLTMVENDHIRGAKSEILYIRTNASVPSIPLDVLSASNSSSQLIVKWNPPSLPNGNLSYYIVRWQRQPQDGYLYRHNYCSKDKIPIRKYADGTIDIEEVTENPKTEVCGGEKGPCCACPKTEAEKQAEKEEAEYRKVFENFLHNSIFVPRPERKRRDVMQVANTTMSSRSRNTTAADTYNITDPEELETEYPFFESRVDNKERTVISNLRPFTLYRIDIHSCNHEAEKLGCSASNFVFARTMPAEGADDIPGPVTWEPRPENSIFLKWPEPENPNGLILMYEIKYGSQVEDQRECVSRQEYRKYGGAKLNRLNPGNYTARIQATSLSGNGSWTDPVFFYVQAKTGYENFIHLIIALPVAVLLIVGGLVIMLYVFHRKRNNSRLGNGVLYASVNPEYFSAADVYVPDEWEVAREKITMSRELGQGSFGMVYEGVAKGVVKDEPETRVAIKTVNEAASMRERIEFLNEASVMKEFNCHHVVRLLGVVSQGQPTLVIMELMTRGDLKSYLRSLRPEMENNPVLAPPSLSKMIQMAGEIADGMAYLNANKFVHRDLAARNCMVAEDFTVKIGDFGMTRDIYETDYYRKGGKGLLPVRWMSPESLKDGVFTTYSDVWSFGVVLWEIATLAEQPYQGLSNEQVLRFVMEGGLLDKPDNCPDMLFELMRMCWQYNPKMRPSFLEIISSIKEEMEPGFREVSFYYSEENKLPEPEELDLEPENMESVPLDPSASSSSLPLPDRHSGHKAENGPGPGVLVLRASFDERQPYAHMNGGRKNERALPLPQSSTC
Outline: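 IC50 from AlphaLISA read-out of lysed PC3 cells, percent inhibition normalized between vehicle and EC80 controls. Before lysis, cells had 2 h serum-free starvation, 2 h exposure to compound in 3× dilution series, and 30 min IGF1 stimulation at final 200 ng/mL.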

IGF-1R [2] = target: T1, IGF-1R; assay: Example B-2: IGF-1R Assay (PathHunter cell lines, EC80 agonist challenge, chemiluminescent detection); format: cell-based; settings: PathHunter cells, compound 60 minutes at 37° C., EC80 agonist 3 hours; read-out: IC50, Biological Activity against IGF-1R (Table B2)
Outline: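 Read-out is PathHunter chemiluminescence, developed for 1 h at room temperature after a 3 h room-temperature EC80 agonist challenge that followed 60 min compound pre-treatment at 37° C (1% vehicle). IC50 comes from % inhibition normalized to EC80 and vehicle controls.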

IC50 (IGF-1R [1])	IC50 (IGF-1R [2])	Compound
≤ 500 nM	≤ 500 nM	CC1(C)C(=O)N(c2ccc(C3(C(F)(F)F)CC3)cc2)C(=O)N1Cc1ccnc(NCCS(C)(=O)=O)c1 [Compound 137, 5,5-dimethyl-1-((2-((2-(methylsulfonyl)ethyl)amino)pyridin-4-yl)methyl)-3-(4-(1-(trifluoromethyl)cyclopropyl)phenyl) imidazolidine-2,4-dione]
≤ 500 nM	≤ 500 nM	CC1(C)C(=O)N(c2ccc(SC(F)(F)F)cc2)C(=O)N1Cc1ccnc(NC(=O)Nc2cccc(F)c2)c1 [Compound 373, 1-(4-((5,5-dimethyl-2,4-dioxo-3-(4-((trifluoromethyl)thio)phenyl)imidazolidin-1-yl)methyl)pyridin-2-yl)-3-(3-fluorophenyl)urea]
≤ 500 nM	≤ 500 nM	CC1(C)C(=O)N(c2ccc(C3(C(F)(F)F)CC3)cc2)C(=O)N1Cc1ccnc(NC2CC2)c1 [Compound 93, 1-((2-(cyclopropylamino)pyridin-4-yl)methyl)-5,5-dimethyl-3-(4-(1-(trifluoromethyl)cyclopropyl)phenyl)imidazolidine-2,4-dione]
≤ 500 nM	≤ 500 nM	CC1(C)C(=O)N(c2ccc(S(=O)(=O)C(F)(F)F)cc2)C(=O)N1Cc1ccnc(NC2CCOCC2)c1 [Compound 316, 5,5-dimethyl-1-((2-((tetrahydro-2H-pyran-4-yl)amino)pyridin-4-yl)methyl)-3-(4-((trifluoromethyl)sulfonyl)phenyl) imidazolidine-2,4-dione]
≤ 500 nM	≤ 500 nM	CC1(C)C(=O)N(c2ccc(C3(C(F)(F)F)CC3)cc2)C(=O)N1Cc1ccnc2c1OCCN2 [Compound 17, 1-((3,4-dihydro-2H-pyrido[3,2-b][1,4]oxazin-8-yl)methyl)-5,5-dimethyl-3-(4-(1-(trifluoromethyl)cyclopropyl)phenyl) imidazolidine-2,4-dione]
≤ 500 nM	≤ 500 nM	CC(C)Nc1cc(CN2C(=O)N(c3ccc(C(C)(C)C)cn3)C(=O)C2(C)C)ccn1 [Compound 277, 3-(5-(tert-butyl)pyridin-2-yl)-1-((2-(isopropylamino)pyridin-4-yl)methyl)-5,5-dimethylimidazolidine-2,4-dione]
≤ 500 nM	–	5,5-dimethyl-1-((2-((2-methyl- 3-oxoisoindolin-5- yl)amino)pyridin-4-yl)methyl)- 3-(4- ((trifluoromethyl)thio)phenyl) amidazolidine-2,4-dione [Compound 272]
≤ 500 nM	–	CC1(C)C(=O)N(c2ccc(S(F)(F)(F)(F)F)cc2)C(=O)N1Cc1ccnc(N)c1 [Compound 179, 1-((2-aminopyridin-4-yl)methyl)-5,5-dimethyl-3-(4-(pentafluoro-16-sulfanyl)phenyl)imidazolidine-2,4-dione]
≤ 500 nM	–	CC1(C)C(=O)N(c2ccc(SC(F)(F)F)cc2)C(=O)N1Cc1ccnc(NC(=O)c2cccnc2)c1 [Compound 360, N-(4-((5,5-dimethyl-2,4-dioxo-3-(4-((trifluoromethyl)thio)phenyl)imidazolidin-1-yl)methyl)pyridin-2-yl)nicotinamide]

The remaining lines, values behind:

Compound	IC50 (IGF-1R [1])	IC50 (IGF-1R [2])
CC(C)Nc1cc(CN2C(=O)N(c3ccc(SC(F)(F)F)nc3)C(=O)C2(C)C)ccn1 [Compound 392, 1-((2-(isopropylamino)pyridin-4-yl)methyl)-5,5-dimethyl-3-(6-((trifluoromethyl)thio)pyridin-3-yl)imidazolidine-2,4-dione]	500 to 2000 nM	500 to 2000 nM
CC1(C)C(=O)Nc2nccc(CN3C(=O)N(c4ccc(SC(F)(F)F)cc4)C(=O)C3(C)C)c21 [Compound 19, 1-((3,3-dimethyl-2-oxo-2,3-dihydro-1H-pyrrolo[2,3-b]pyridin-4-yl)methyl)-5,5-dimethyl-3-(4-((trifluoromethyl)thio)phenyl)imidazolidine-2,4-dione]	≤ 500 nM	≤ 500 nM
CC1(C)C(=O)N(c2ccc(C3(C(F)(F)F)CC3)cc2)C(=O)N1Cc1ccnc(NC2CCS(=O)(=O)CC2)c1 [Compound 133, 1-((2-((1,1-dioxidotetrahydro-2H-thiopyran-4-yl)amino)pyridin-4-yl)methyl)-5,5-dimethyl-3-(4-(1-(trifluoromethyl)cyclopropyl)phenyl) imidazolidine-2,4-dione]	500 to 2000 nM	500 to 2000 nM
CC1(C)C(=O)N(c2ccc(C3(C(F)(F)F)CCC3)cc2)C(=O)N1Cc1ccnc(NC2CCOCC2)c1 [Compound 130, 5,5-dimethyl-1-((2-((tetrahydro-2H-pyran-4-yl)amino)pyridin-4-yl)methyl)-3-(4-(1-(trifluoromethyl)cyclobutyl)phenyl) imidazolidine-2,4-dione]	≤ 500 nM	≤ 500 nM
CC(C)Nc1cc(CN2C(=O)N(c3ccc(C4(C)CC4)cc3)C(=O)C2(C)C)ccn1 [Compound 98, 1-((2-(isopropylamino)pyridin-4-yl)methyl)-5,5-dimethyl-3-(4-(1-methylcyclopropyl)phenyl)imidazolidine-2,4-dione]	≤ 500 nM	≤ 500 nM
CC1(C)C(=O)N(c2ccc(C3(C(F)(F)F)CC3)cc2)C(=O)N1Cc1ccnc(NC2CC3(COC3)C2)c1 [Compound 120, 1-((2-((2-oxaspiro[3.3]heptan-6-yl)amino)pyridin-4-yl)methyl)-5,5-dimethyl-3-(4-(1-(trifluoromethyl)cyclopropyl)phenyl) imidazolidine-2,4-dione]	≤ 500 nM	≤ 500 nM
CC(C)Nc1cc(CN2C(=O)N(c3ccc(SC(F)(F)F)cc3)C(=O)C2(C)CO)ccn1 (stereo not shown) [Compound 299, 5-(hydroxymethyl)-1-((2-(isopropylamino)pyridin-4-yl)methyl)-5-methyl-3-(4-((trifluoromethyl)thio)phenyl)imidazolidine-2,4-dione]	2000 to 10000 nM	2000 to 10000 nM
CC1(C)COCCC1Nc1cc(CN2C(=O)N(c3ccc(C4(C(F)(F)F)CC4)cc3)C(=O)C2(C)C)ccn1 (stereo not shown) [Compound 132, 1-((2-((3,3-dimethyltetrahydro-2H-pyran-4-yl)amino)pyridin-4-yl)methyl)-5,5-dimethyl-3-(4-(1-(trifluoromethyl)cyclopropyl)phenyl) imidazolidine-2,4-dione]	2000 to 10000 nM	500 to 2000 nM
CC(c1ccnc(NC2CCOCC2)c1)N1C(=O)N(c2ccc(C3(C(F)(F)F)CC3)cc2)C(=O)C1(C)C (stereo not shown) [Compound 134, 5,5-dimethyl-1-(1-(2-((tetrahydro-2H-pyran-4-yl)amino)pyridin-4-yl)ethyl)-3-(4-(1-(trifluoromethyl)cyclopropyl)phenyl) imidazolidine-2,4-dione]	≤ 500 nM	500 to 2000 nM
C[C@@H]1COc2c(CN3C(=O)N(c4ccc(C5(C(F)(F)F)CC5)cc4)C(=O)C3(C)C)ccnc2N1 [Compound 25, (R)-5,5-dimethyl-1-((3-methyl-3,4-dihydro-2H-pyrido[3,2-b][1,4]oxazin-8-yl)methyl)-3-(4-(1-(trifluoromethyl)cyclopropyl)phenyl) imidazolidine-2,4-dione]	≤ 500 nM	≤ 500 nM
CC(C)Nc1cc(CN2C(=O)N(c3ccc4c(c3)N(C)CC43CCC3)C(=O)C2(C)C)ccn1 [Compound 191, 1-((2-(isopropylamino)pyridin-4-yl)methyl)-5,5-dimethyl-3-(1′-methylspiro[cyclobutane-1,3′-indolin]-6′-yl)imidazolidine-2,4-dione]	≤ 500 nM	≤ 500 nM
CC(C)Nc1cc(CN2C(=O)N(c3ccc4c(c3)N(C)C(=O)C43CC3)C(=O)C2(C)C)ccn1 [Compound 185, 1-((2-(isopropylamino)pyridin-4-yl)methyl)-5,5-dimethyl-3-(1′-methyl-2′-oxospiro[cyclopropane-1,3′-indolin]-6′-yl)imidazolidine-2,4-dione]	2000 to 10000 nM	2000 to 10000 nM
CC1(C)C(=O)N(c2ccc(C3(C(F)(F)F)CC3)cc2)C(=O)N1Cc1ccnc(NC2CCS(=O)(=O)C2)c1 (stereo not shown) [Compound 136, 1-((2-((1,1-dioxidotetrahydrothiophen-3-yl)amino)pyridin-4-yl)methyl)-5,5-dimethyl-3-(4-(1-(trifluoromethyl)cyclopropyl)phenyl) imidazolidine-2,4-dione]	500 to 2000 nM	500 to 2000 nM
CC1(C)CNc2ncc(CN3C(=O)N(c4ccc(SC(F)(F)F)cc4)C(=O)C3(C)C)cc21 [Compound 405, 1-((3,3-dimethyl-2,3-dihydro-1H-pyrrolo[2,3-b]pyridin-5-yl)methyl)-5,5-dimethyl-3-(4-((trifluoromethyl)thio)phenyl) imidazolidine-2,4-dione]	2000 to 10000 nM	–
COc1ccc(NC(=O)Nc2cc(CN3C(=O)N(c4ccc(SC(F)(F)F)cc4)C(=O)C3(C)C)ccn2)cc1 [Compound 363, 1-(4-((5,5-dimethyl-2,4-dioxo-3-(4-((trifluoromethyl)thio)phenyl)imidazolidin-1-yl)methyl)pyridin-2-yl)-3-(4-methoxyphenyl)urea]	≤ 500 nM	–
CC(C)Nc1cc(CN2C(=O)N(c3ccc(C45CC(C)(C4)C5)cc3)C(=O)C2(C)C)ccn1 [Compound 112, 1-((2-(isopropylamino)pyridin-4-yl)methyl)-5,5-dimethyl-3-(4-(3-methylbicyclo[1.1.1]pentan-1-yl)phenyl)imidazolidine-2,4-dione]	2000 to 10000 nM	–
CC(C)NC(=O)Nc1cc(CN2C(=O)N(c3ccc(SC(F)(F)F)cc3)C(=O)C2(C)C)ccn1 [Compound 370, 1-(4-((5,5-dimethyl-2,4-dioxo-3-(4-((trifluoromethyl)thio)phenyl)imidazolidin-1-yl)methyl)pyridin-2-yl)-3-isopropylurea]	≤ 500 nM	–
CC1(C)C(=O)N(c2ccc(C3CCCCC3)cc2)C(=O)N1Cc1ccnc(N)c1 [Compound 87, 1-((2-aminopyridin-4-yl)methyl)-3-(4-cyclohexylphenyl)-5,5-dimethylimidazolidine-2,4-dione]	500 to 2000 nM	–
